US9260710B2, “Photocleavable linker” (City of Hope, priority 2012, dated 2016)

Columns and labels:
[1] = test system: TcTex1 and FKBP-IC peptide (TcTex1 trap); test: Native PAGE and SEC of TcTex1 / TcTex-trap complex formation with AP20187; type: biochemical
Source text: To generate a TcTex1 trap, residues 107-125 of rat dynein IC2C, which specifically interact with TcTex1, were fused to the C-terminus of FKBP (FKBP-IC; FIG. 10D). […] However, addition of AP20187 to the admixture of FKBP-IC (L112A) peptide and TcTex1 produced a shift, but required a 16-fold higher concentration of AP20187 than the LC8/LC8-trap interaction (FIG. 10E, round 2). Based on this observation, we hypothesized that the sequence immediately preceding the TcTex1-binding region may interfere with the interaction, either through conformational restriction due to P109 or electrostatic repulsion due to K111. Therefore, we mutated the sequence PIK to GGS, to introduce flexible, hydrophilic residues (residues 109-111) (FIG. 10D).

[2] = test system: EGFP-FKBP-LC8TRAP transfected COS1 cells; test: Endosome dispersion (EEA1 staining) in trap-transfected cells; type: cell-based; conditions: for time of drug treatment after which maximum dispersion was reached: unchanged with further increase in time; for maximum number of cells with dispersed endosomes: 2 h, dimerizer concentrations greater than 500 nM; for drug concentration at which maximum dispersion is seen: 2 hrs treatment, unchanged with further increase in concentration
Protocol: Cell Culture. COS1 cells were cultured in DMEM (CELLGRO®) supplemented with 10% fetal bovine/calf serum (Omega Scientific). Transfection was performed in 80-90% confluent 24-h cultures of COS1 cells using LIPOFECTAMINE™ 2000 (Invitrogen) and OPTI-MEM™ media (GIBCO®) according to the manufacturer's recommendations. Various concentrations (0 nM to 1000 nM) of AP (Ariad Pharmaceuticals Inc.) and PhAP (as described herein) were added to each experimental wells 24 hr. post transfection and incubated for different periods of time before analyzing the cells. For reversibility of endosome dispersion studies, 500 nM of AP/PhAP were used. In each case, the cells were washed well with PBS and supplemented with fresh media before inducing with UV light (10 mins., 4 W, 350 nm) and allowed to recover for various time period at 37° C., before analysis.
Immunostaining and Microscopy. For immunostaining, transiently transfected COS1 cells were fixed with 3.7% formaldehyde at room temperature for 10 min, and subsequent immunostaining was performed as described previously^[2]. Briefly, COS 1 cells grown on 25-mm coverslips were washed 3× with PBS, treated with 3.7% formaldehyde (Sigma) in PBS for fixation, and permeabilized in 0.5% Triton X-100 (Sigma) in PBS at room temperature for 10 min. Cells were then incubated with blocking buffer containing 4% skimmed milk (fat free) and 0.5% Triton X-100 in PBS. Anti-EEA1 monoclonal antibody was added to label early endosome marker protein at a dilution of 1:100 in the same buffer for 30 min at RT, and the coverslips were washed and incubated with rhodamine-conjugated donkey anti-mouse secondary antibody (1:100). After washing, the coverslips were mounted on slides to visualize the trapping effects. Samples were viewed using an Olympus IX81 automated inverted microscope equipped with water immersion 60× objective. The level of dispersion was quantified by counting 100 cells per coverslip. Each experiment was performed in triplicate. Images were obtained using a Spot RT Slider high-resolution cooled CCD camera equipped to IX81 microscope and Image-Pro software. Images were cropped and processed using Adobe Photoshop 7.0 (Adobe Systems).
To determine if these biochemical results had relevance in cells, we investigated if photocleavage of PhAP could reverse the endosome dispersion phenotype induced by LC8TRAP and AP. First, we established that PhAP behaved in a similar intracellular manner as AP. To this end, we used a green fluorescent protein (GPF) analog of the trap, EGFP-FKBP-LC8TRAP to identify cells that expressed the trap. COS1 cells were transiently transfected with EGFP-FKBP-LC8TRAP for 24 h, after which they were treated with PhAP or AP (0 nM-1000 nM) for 2 h. Cells were then fixed and stained with an early endosome marker 1 (EEA1). The number of cells with dispersed endosomes after treatment with PhAP or AP was indistinguishable. The maximum number of cells with dispersed endosomes (67.5±7.0% for PhAP and 64.1±7.6% for non-photocleavable AP), was obtained at dimerizer concentrations greater than 500 nM. The rate of dispersion was also similar using either dimerizing agent, and no changes were observed past 2 hours. The values obtained for both AP and PhAP are also in agreement with our previous studies. See e.g., Varma et al., 2010 (Id.)

[3] = test system: GFP IC trap transfected Cos1 cells; test: Organelle dispersion and microtubule array in cells expressing the IC trap; type: cell-based
Protocol: FIGS. 13A-13B. FIGS. 13A-13B depict that induction of IC traps leads to Endosome (FIG. 13A) and Golgi apparatus (FIG. 13B) dispersion. Cos1 cells were transfected with the GFP IC trap (upper rights panels of FIGS. 13A and 13B) for 24 h and then treated with AP20187 for 1 h. The cells were stained with DAPI for nuclei (upper left panels of FIGS. 13 A and 13B) and EEA1 for endosomes (FIG. 13A, lower left panel)) or GM130 marker for Golgi bodies (FIG. 13B, lower left panel). Note the endosomes and Golgi apparatus are dispersed (marked “d”) within 10 min and 1 h, respectively. Cells not containing the IC trap all show compact endosomes and Golgi bodies (marked “c”). Scale bar is 5 μm.
As a test for effects on cytoplasmic dynein functions that are distinct from vesicular transport, we monitored mitotic behavior in cells expressing either the LC8- or TcTex1-traps. We observed little effect on either mitotic index or the fraction of mitotic cells at discrete mitotic stages with either trap (data not shown). […] Finally, similar studies were carried out using the IC trap. As before, we observed little or no change in the dispersion of endosomes and Golgi apparatus before AP20187 treatment. Induction of dimerization through the addition of AP20187 (1 μM) produced immediate changes in both organelles. After 4 h, 81+4% of cells contained dispersed endosomes and 68+3% of cells contained dispersed Golgi. […] The precise reason for this difference is not clear; however, currently, we attribute this to a change in the cytoskeleton, but this must still be verified. We are also in the process of measuring the effect of sequestering the dynein IC on mitotic behavior.
Microtubule architecture. Known methods of inhibiting cytoplasmic dynein, such as expression of dynactin polypeptides or RNAi against the dynein regulatory factors NudEL and ZW10, cause disorganization of the radial microtubule (MT) network in cultured mammalian cells 52-54. […] This is consistent with previous studies where overexpressing a dimeric form of the IC trap (e.g., CC1 of p150glued) also disrupts of the MT array).

[4] = modified FKBP-IC trap, PIK to GGS (round 3)
[5] = 500 nM, time 0.167 Hr (10 min.)
[6] = Cos1 cells, after AP20187 addition

Structure (SMILES) | Percentage of endosomes dispersion ([2]; 10 nM, 2 hr. of treatment) [%] | Percentage of endosomes dispersion ([2]; 20 nM, 2 hr. of treatment) [%] | Percentage of endosomes dispersion ([2]; 100 nM, 2 hr. of treatment) [%] | Percentage of endosomes dispersion ([2]; 500 nM, 2 hr. of treatment) [%] | Percentage of endosomes dispersion ([2]; 500 nM, time 0 Hr) | Percentage of endosomes dispersion [2, 5] [%] | Percentage of endosomes dispersion ([2]; 500 nM, time 0.5 Hr) [%] | Percentage of endosomes dispersion ([2]; 500 nM, time 1 Hr) [%] | Percentage of endosomes dispersion ([2]; 500 nM, time 2 Hr) [%] | Percentage of endosomes dispersion ([2]; 500 nM, time 4 Hr) [%] | time of drug treatment after which maximum dispersion was reached ([2]; 500 nM) [h] | Percentage of endosomes dispersion ([2]; 1000 nM, 2 hr. of treatment) [%] | maximum number of cells with dispersed endosomes [2] [%] | drug concentration at which maximum dispersion is seen [2] [nM] | further results
CCC(C(=O)N1CCCCC1C(=O)OC(CCc1ccc(OC)c(OC)c1)c1cccc(OCC(=O)NCC(CNC(=O)COc2cccc(C(CCc3ccc(OC)c(OC)c3)OC(=O)C3CCCCN3C(=O)C(CC)c3cc(OC)c(OC)c(OC)c3)c2)CN(C)C)c1)c1cc(OC)c(OC)c(OC)c1 (stereo not shown) [AP, AP20187] | 44.4 ± 2.4 | 53.0 ± 3.5 | 56.2 ± 1.6 | 64.1 ± 7.6 | 30.2 ± 2.8% | 45.0 ± 2.6 | 53.6 ± 6.5 | 53.8 ± 2.9 | 69.8 ± 4.3 | 70.9 ± 2.1 | 2 | 66.4 ± 2.5 | 64.1±7.6 | 500 | fold higher concentration of AP20187 required for shift than the LC8/LC8-trap interaction ([1]; FKBP-IC (L112A) peptide and TcTex1 (round 2)): 16 fold; concentration of AP20187 to fully sequester TcTex1 relative to that required for the LC8-trap [1, 4]: approximately twice; fold lower concentration of AP20187 to fully sequester TcTex1 than the FKBP-IC (L112A) peptide [1, 4]: ~8 fold; cells containing dispersed Golgi ([3]; AP20187 1 μM, after 4 h): 68+3%; cells containing dispersed endosomes ([3]; AP20187 1 μM, after 4 h): 81+4%; microtubule (MT) radial array ([3]; AP20187-induced dimerization of the IC trap): significantly disrupted; time within which Golgi apparatus is dispersed [3, 6]: ≤ 1 h; time within which endosomes are dispersed [3, 6]: ≤ 10 min
CC[C@H](C(=O)N1CCCC[C@H]1C(=O)O[C@H](CCc1ccc(OC)c(OC)c1)c1cccc(OCC(=O)OC(C)c2ccc(C(C)OC(=O)COc3cccc([C@@H](CCc4ccc(OC)c(OC)c4)OC(=O)[C@@H]4CCCCN4C(=O)[C@@H](CC)c4cc(OC)c(OC)c(OC)c4)c3)c([N+](=O)[O-])c2)c1)c1cc(OC)c(OC)c(OC)c1 (stereo partly shown) [PhAP] | 47.9 ± 8.1 | 48.0 ± 5.0 | 57.5 ± 2.4 | 67.5 ± 7.0 | 29.0 ± .8% | 47.2 ± 2.5 | 49.1 ± 3.3 | 57.2 ± 5.2 | 71.2 ± 2.0 | 69.0 ± 4.9 | 2 | 67.7 ± 4.9 | 67.5±7.0 | 500 | Percentage of endosomes dispersion ([2]; 50 nM, 2 hr. of treatment): 55.5 ± 1.3%
